Experimental data published in patent US9005939B2, “Protoilludene synthase” (priority 2010, dated 2015).

Experiments:
[1] = molecular target: T1, Pro1 (A. gallica protoilludene synthase) expressed in Escherichia coli (Armillaria gallica, UniProt P0DL13); experiment: Sesquiterpene synthase activity of crude soluble protein extract of E. coli expressing Pro1 (radio-TLC); type: biochemical; settings: same Pro1 lysate incubated with diterpene synthase substrate
T1 construct: A. gallica protoilludene synthase (clone Pro1); made in house; host or cells: E. coli BL21 (DE3) CodonPlus, vector pDEST14; crude soluble lysate
Protocol: Escherichia coli protein extracts were prepared by resolving the cell pellet from cultivation in the described extraction puffer and cells were lysed under constant cooling by two rounds of Microfluidizer treatment.
Part of the organic extract was then spotted onto silica-gel TLC plates and separated using 9:1 cyclohexane:ethyl acetate as the solvent, prior to analysis in a radio-TLC reader (Raytest, Straubenhardt). For the determination of KM values the reactions were stopped by quenching with 100 mM EDTA (final concentration) followed by extraction with n-pentane, purification by silica gel column chromatography and quantitation by liquid scintillation counting. All kinetic activity assays were performed in triplicate. Mass spectrometry analysis of solvent extracts was performed on a QP2010S quadrupole mass spectrometer (Shimadzu) equipped with an Rxi™-5 ms (0.25 mm ID, 30 m length) column (Restek) using the following temperature program: 80° C. for 20 min, followed by heating the column at an rate of 15° C./min to 300° C. with a final constant temperature of 300° C. for 4 min. Fragmentation was achieved by electric ionization at […].
Where cDNA sequencing identified potential terpene synthase clones, the corresponding pENTRY vectors were used in LR recombination reactions involving the pDEST14 destination vector. […]

[2] = molecular target: A. gallica protoilludene synthase (Armillaria gallica, UniProt P0DL13); type: biochemical

CC(C)=CCC/C(C)=C/CC/C(C)=C/CC/C(C)=C/COP(=O)(O)OP(=O)(O)O [gernaylgeranyl diphosphate, geranylgeranyl diphosphate]
substrate converted into less polar product [1]: < 1%

[Cl][Mn][Cl] [MnCl2]
fall of protoilludene synthase activity ([2]; 5 mM MgCl2 replaced with MnCl2, relative to highest activity with MgCl2): 75%

CCO [ethanol]
effect on enzyme activity [2]: dramatic reduction in activity
